Measurements from article PMC8273893 (Journal of Medicinal Chemistry, 2021).

Columns and labels:
Plasma stability = assay type: in vitro ADME; conditions: 5 μM, 50% human plasma in PBS, 1 h, 37 °C
[1] = Parallel artificial membrane permeability assay; assay type: in vitro ADME; conditions: 500 μM in donor, 20 h

Compound | plasma stability (% remaining) (Plasma stability) | PAMPA (% flux) [1] [% flux]
O=C(O)c1ccc(-c2nn(C(=O)c3c(Cl)cccc3C(F)(F)F)c3ccccc23)cc1 [Compound 1, reference compound] | 95.5 | 29.7
O=C(O)c1ccc(OCc2c(-c3c(Cl)cccc3C(F)(F)F)noc2-c2cc[nH]c2)cc1F [Compound 9, 4-((3-(2-Chloro-6-(trifluoromethyl)phenyl)-5-(1H-pyrrol-3-yl)isoxazol-4-yl)methoxy)-2-fluorobenzoic Acid] | 97.1 | 37.3
O=C(O)c1ccc(OCc2c(-c3c(Cl)cccc3C(F)(F)F)noc2-c2ccc[nH]2)cc1 [Compound 10, 4-((3-(2-Chloro-6-(trifluoromethyl)phenyl)-5-(1H-pyrrol-2-yl)isoxazol-4-yl)methoxy) Benzoic Acid] | 89.5 | 50.5
O=C(O)c1ccc(OCc2c(-c3c(Cl)cccc3C(F)(F)F)noc2-c2cn[nH]c2)cc1 [Compound 11, 4-((3-(2-Chloro-6-(trifluoromethyl)phenyl)-5-(1H-pyrazol-4-yl)isoxazol-4-yl)methoxy) Benzoic Acid] | 100 | 23.0

More lines, now with the values ahead:

plasma stability (% remaining) (Plasma stability) | PAMPA (% flux) [1] [% flux] | Compound
79.1 | 36.1 | O=C(O)c1ccc(NCc2c(-c3c(Cl)cccc3C(F)(F)F)noc2-c2cc[nH]c2)cc1 [Compound 2, 4-(((3-(2-Chloro-6-(trifluoromethyl)phenyl)-5-(1H-pyrrol-3-yl)isoxazol-4-yl)methyl)amino) Benzoic Acid]
74.2 | 40.9 | O=C(O)c1ccc(OCc2c(-c3c(Cl)cccc3C(F)(F)F)noc2-c2cc[nH]c2)cc1 [Compound 3, 4-((3-(2-Chloro-6-(trifluoromethyl)phenyl)-5-(1H-pyrrol-3-yl)isoxazol-4-yl)methoxy) Benzoic Acid]
59.5 | 40.3 | O=C(O)c1ccc(/C=C/c2c(-c3c(Cl)cccc3C(F)(F)F)noc2-c2cc[nH]c2)cc1 [Compound 6, (E)-4-(2-(3-(2-Chloro-6-(trifluoromethyl)phenyl)-5-(1H-pyrrol-3-yl)isoxazol-4-yl)vinyl) Benzoic Acid]
